Results taken from ChEMBL document CHEMBL1909294, “Translating clinical findings into knowledge in drug safety evaluation--drug induced liver injury prediction system (DILIps)” (PLoS Comput Biol, 2011).

What was measured:
Hepatotoxicity [1] = system: Hepatotoxicity;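 as to HepSE bilirubinemia: bilirubinemia hepatic side effect score drawn from the DILIps training data, a prediction system for drug-induced liver injury; call rule not given here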;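 as to HepSE cholecystitis: Cholecystitis-related hepatic side effect score drawn from the DILIps (drug-induced liver injury prediction) training data set; call rule not given here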;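 as to HepSE cirrhosis: cirrhosis hepatic side effect score taken from the DILIps (drug-induced liver injury prediction) training set; call rule not given here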;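 as to HepSE hepatomegaly: hepatic side effect score for hepatomegaly, taken from the training set of the DILIps drug-induced liver injury prediction system; call rule not given here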; as to HepSE liver disease: call rule not given here;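 as to HepSE liver fatty: hepatic side effect score for fatty liver, taken from the DILIps training set for predicting drug-induced liver injury; call rule not given here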;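 as to HepSE liver function tests abnormal: hepatic side effect score taken from the DILIps (drug-induced liver injury prediction system) training data, here covering abnormal liver function test findings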
Hepatotoxicity [2] = system: Hepatotoxicity; remark: listed apart in the source;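 as to HepSE bilirubinemia: bilirubinemia hepatic side effect score drawn from the DILIps training data, a prediction system for drug-induced liver injury; call rule not given here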;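 as to HepSE cholecystitis: Cholecystitis-related hepatic side effect score drawn from the DILIps (drug-induced liver injury prediction) training data set; call rule not given here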;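 as to HepSE cirrhosis: cirrhosis hepatic side effect score taken from the DILIps (drug-induced liver injury prediction) training set; call rule not given here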;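 as to HepSE hepatomegaly: hepatic side effect score for hepatomegaly, taken from the training set of the DILIps drug-induced liver injury prediction system; call rule not given here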; as to HepSE liver disease: call rule not given here;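 as to HepSE liver fatty: hepatic side effect score for fatty liver, taken from the DILIps training set for predicting drug-induced liver injury; call rule not given here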
Hepatotoxicity [3] = system: Hepatotoxicity; remark: listed apart in the source;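 as to HepSE bilirubinemia: bilirubinemia hepatic side effect score drawn from the DILIps training data, a prediction system for drug-induced liver injury; call rule not given here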;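 as to HepSE cholecystitis: Cholecystitis-related hepatic side effect score drawn from the DILIps (drug-induced liver injury prediction) training data set; call rule not given here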;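 as to HepSE cirrhosis: cirrhosis hepatic side effect score taken from the DILIps (drug-induced liver injury prediction) training set; call rule not given here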;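 as to HepSE hepatomegaly: hepatic side effect score for hepatomegaly, taken from the training set of the DILIps drug-induced liver injury prediction system; call rule not given here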; as to HepSE liver disease: call rule not given here;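 as to HepSE liver fatty: hepatic side effect score for fatty liver, taken from the DILIps training set for predicting drug-induced liver injury; call rule not given here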
Hepatotoxicity [4] = system: Hepatotoxicity; remark: listed apart in the source;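 as to HepSE bilirubinemia: bilirubinemia hepatic side effect score drawn from the DILIps training data, a prediction system for drug-induced liver injury; call rule not given here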;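 as to HepSE cholecystitis: Cholecystitis-related hepatic side effect score drawn from the DILIps (drug-induced liver injury prediction) training data set; call rule not given here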;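 as to HepSE cirrhosis: cirrhosis hepatic side effect score taken from the DILIps (drug-induced liver injury prediction) training set; call rule not given here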;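 as to HepSE hepatomegaly: hepatic side effect score for hepatomegaly, taken from the training set of the DILIps drug-induced liver injury prediction system; call rule not given here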; as to HepSE liver disease: call rule not given here;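 as to HepSE liver fatty: hepatic side effect score for fatty liver, taken from the DILIps training set for predicting drug-induced liver injury; call rule not given here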
Hepatotoxicity [5] = system: Hepatotoxicity; remark: listed apart in the source; as to HepSE liver disease: call rule not given here
Hepatotoxicity [6] = system: Hepatotoxicity; remark: listed apart in the source; as to HepSE liver disease: call rule not given here
Hepatotoxicity [7] = system: Hepatotoxicity; remark: listed apart in the source
Hepatotoxicity [8] = system: Hepatotoxicity; remark: listed apart in the source
Hepatotoxicity [9] = system: Hepatotoxicity; remark: listed apart in the source
Hepatotoxicity [10] = system: Hepatotoxicity; remark: listed apart in the source
Hepatotoxicity [11] = system: Hepatotoxicity; remark: listed apart in the source
Hepatotoxicity [12] = system: Hepatotoxicity; remark: listed apart in the source
Hepatotoxicity [13] = system: Hepatotoxicity; remark: listed apart in the source
Hepatotoxicity [14] = system: Hepatotoxicity; remark: listed apart in the source

CCCCC[C@H](O)CC[C@@H]1[C@H]2Cc3cccc(OCC(=O)O)c3C[C@H]2C[C@H]1O [TREPROSTINIL]
0: HepSE_cholecystitis (Hepatotoxicity [1]) | HepSE_hepatomegaly (Hepatotoxicity [2]) | HepSE_liver fatty (Hepatotoxicity [3]) | HepSE_liver disease (Hepatotoxicity [4]) | HepSE_bilirubinemia (Hepatotoxicity [5]) | HepSE_cirrhosis (Hepatotoxicity [6]) | HepSE_hepatitis (Hepatotoxicity [7]) | HepSE_cholelithiasis (Hepatotoxicity [8]) | HepSE_liver function tests abnormal (Hepatotoxicity [9]) | HepSE_jaundice (Hepatotoxicity [10]) | HepSE_hepatic failure (Hepatotoxicity [11]) | HepSE_hepatic necrosis (Hepatotoxicity [12]) | HepSE_elevated liver function tests (Hepatotoxicity [13]) | HepSE_Combined Scores (Hepatotoxicity [14])

CCn1nc(C(=O)O)c(=O)c2cc3c(cc21)OCO3 [CINOXACIN]
0: HepSE_cholecystitis (Hepatotoxicity [1]) | HepSE_hepatomegaly (Hepatotoxicity [2]) | HepSE_liver fatty (Hepatotoxicity [3]) | HepSE_liver disease (Hepatotoxicity [4]) | HepSE_bilirubinemia (Hepatotoxicity [5]) | HepSE_cirrhosis (Hepatotoxicity [6]) | HepSE_hepatitis (Hepatotoxicity [7]) | HepSE_cholelithiasis (Hepatotoxicity [8]) | HepSE_liver function tests abnormal (Hepatotoxicity [9]) | HepSE_jaundice (Hepatotoxicity [10]) | HepSE_hepatic failure (Hepatotoxicity [11]) | HepSE_hepatic necrosis (Hepatotoxicity [12]) | HepSE_elevated liver function tests (Hepatotoxicity [13]) | HepSE_Combined Scores (Hepatotoxicity [14])

Cn1c(=O)c2c(ncn2C)n(C)c1=O [CAFFEINE]
0: HepSE_cholecystitis (Hepatotoxicity [1]) | HepSE_hepatomegaly (Hepatotoxicity [2]) | HepSE_liver fatty (Hepatotoxicity [3]) | HepSE_liver disease (Hepatotoxicity [4]) | HepSE_bilirubinemia (Hepatotoxicity [5]) | HepSE_cirrhosis (Hepatotoxicity [6]) | HepSE_hepatitis (Hepatotoxicity [7]) | HepSE_cholelithiasis (Hepatotoxicity [8]) | HepSE_liver function tests abnormal (Hepatotoxicity [9]) | HepSE_jaundice (Hepatotoxicity [10]) | HepSE_hepatic failure (Hepatotoxicity [11]) | HepSE_hepatic necrosis (Hepatotoxicity [12]) | HepSE_elevated liver function tests (Hepatotoxicity [13]) | HepSE_Combined Scores (Hepatotoxicity [14])

CC(C)C[C@H](NC(=O)[C@H](Cc1ccccc1)NC(=O)c1cnccn1)B(O)O [BORTEZOMIB]
0: HepSE_cholecystitis (Hepatotoxicity [1]; Liver) | HepSE_hepatomegaly (Hepatotoxicity [2]; Liver) | HepSE_liver fatty (Hepatotoxicity [3]; Liver) | HepSE_liver disease (Hepatotoxicity [4]; Liver) | HepSE_cirrhosis (Hepatotoxicity [6]; Liver) | HepSE_cholelithiasis (Hepatotoxicity [8]; Liver) | HepSE_liver function tests abnormal (Hepatotoxicity [9]; Liver) | HepSE_jaundice (Hepatotoxicity [10]; Liver) | HepSE_hepatic necrosis (Hepatotoxicity [12]; Liver) | HepSE_elevated liver function tests (Hepatotoxicity [13]; Liver)
1: HepSE_bilirubinemia (Hepatotoxicity [5]; Liver) | HepSE_hepatitis (Hepatotoxicity [7]; Liver) | HepSE_hepatic failure (Hepatotoxicity [11]; Liver)
3: HepSE_Combined Scores (Hepatotoxicity [14]; Liver)

OC[C@@H](O)[C@@H](O)[C@H](O)[C@H](O)CO [MANNITOL]
0: HepSE_cholecystitis (Hepatotoxicity [1]) | HepSE_hepatomegaly (Hepatotoxicity [2]) | HepSE_liver fatty (Hepatotoxicity [3]) | HepSE_liver disease (Hepatotoxicity [4]) | HepSE_bilirubinemia (Hepatotoxicity [5]) | HepSE_cirrhosis (Hepatotoxicity [6]) | HepSE_hepatitis (Hepatotoxicity [7]) | HepSE_cholelithiasis (Hepatotoxicity [8]) | HepSE_liver function tests abnormal (Hepatotoxicity [9]) | HepSE_jaundice (Hepatotoxicity [10]) | HepSE_hepatic failure (Hepatotoxicity [11]) | HepSE_hepatic necrosis (Hepatotoxicity [12]) | HepSE_elevated liver function tests (Hepatotoxicity [13]) | HepSE_Combined Scores (Hepatotoxicity [14])

CCc1nn(CCCN2CCN(c3cccc(Cl)c3)CC2)c(=O)n1CCOc1ccccc1 [NEFAZODONE]
0: HepSE_cholecystitis (Hepatotoxicity [1]) | HepSE_hepatomegaly (Hepatotoxicity [2]) | HepSE_liver fatty (Hepatotoxicity [3]) | HepSE_liver disease (Hepatotoxicity [4]) | HepSE_bilirubinemia (Hepatotoxicity [5]) | HepSE_cirrhosis (Hepatotoxicity [6]) | HepSE_cholelithiasis (Hepatotoxicity [8]) | HepSE_jaundice (Hepatotoxicity [10]) | HepSE_hepatic failure (Hepatotoxicity [11]) | HepSE_elevated liver function tests (Hepatotoxicity [13])
3: HepSE_Combined Scores (Hepatotoxicity [14])
1: HepSE_hepatitis (Hepatotoxicity [7]) | HepSE_liver function tests abnormal (Hepatotoxicity [9]) | HepSE_hepatic necrosis (Hepatotoxicity [12])

CCCCC(=O)OCC(=O)[C@]1(O)Cc2c(O)c3c(c(O)c2[C@@H](O[C@H]2C[C@H](NC(=O)C(F)(F)F)[C@H](O)[C@H](C)O2)C1)C(=O)c1c(OC)cccc1C3=O [VALRUBICIN]
0: HepSE_cholecystitis (Hepatotoxicity [1]) | HepSE_hepatomegaly (Hepatotoxicity [2]) | HepSE_liver fatty (Hepatotoxicity [3]) | HepSE_liver disease (Hepatotoxicity [4]) | HepSE_bilirubinemia (Hepatotoxicity [5]) | HepSE_cirrhosis (Hepatotoxicity [6]) | HepSE_hepatitis (Hepatotoxicity [7]) | HepSE_cholelithiasis (Hepatotoxicity [8]) | HepSE_liver function tests abnormal (Hepatotoxicity [9]) | HepSE_jaundice (Hepatotoxicity [10]) | HepSE_hepatic failure (Hepatotoxicity [11]) | HepSE_hepatic necrosis (Hepatotoxicity [12]) | HepSE_elevated liver function tests (Hepatotoxicity [13]) | HepSE_Combined Scores (Hepatotoxicity [14])

O=P1(NCCCl)OCCCN1CCCl (stereo not drawn) [IFOSFAMIDE]
0: HepSE_cholecystitis (Hepatotoxicity [1]) | HepSE_hepatomegaly (Hepatotoxicity [2]) | HepSE_liver fatty (Hepatotoxicity [3]) | HepSE_liver disease (Hepatotoxicity [4]) | HepSE_bilirubinemia (Hepatotoxicity [5]) | HepSE_cirrhosis (Hepatotoxicity [6]) | HepSE_hepatitis (Hepatotoxicity [7]) | HepSE_cholelithiasis (Hepatotoxicity [8]) | HepSE_liver function tests abnormal (Hepatotoxicity [9]) | HepSE_jaundice (Hepatotoxicity [10]) | HepSE_hepatic failure (Hepatotoxicity [11]) | HepSE_hepatic necrosis (Hepatotoxicity [12]) | HepSE_elevated liver function tests (Hepatotoxicity [13]) | HepSE_Combined Scores (Hepatotoxicity [14])

CNC1(C)C2CCC(C2)C1(C)C (stereo not drawn) [MECAMYLAMINE]
0: HepSE_cholecystitis (Hepatotoxicity [1]) | HepSE_hepatomegaly (Hepatotoxicity [2]) | HepSE_liver fatty (Hepatotoxicity [3]) | HepSE_liver disease (Hepatotoxicity [4]) | HepSE_bilirubinemia (Hepatotoxicity [5]) | HepSE_cirrhosis (Hepatotoxicity [6]) | HepSE_hepatitis (Hepatotoxicity [7]) | HepSE_cholelithiasis (Hepatotoxicity [8]) | HepSE_liver function tests abnormal (Hepatotoxicity [9]) | HepSE_jaundice (Hepatotoxicity [10]) | HepSE_hepatic failure (Hepatotoxicity [11]) | HepSE_hepatic necrosis (Hepatotoxicity [12]) | HepSE_elevated liver function tests (Hepatotoxicity [13]) | HepSE_Combined Scores (Hepatotoxicity [14])

C=CC(N)CCC(=O)O (stereo not drawn) [VIGABATRIN]
0: HepSE_cholecystitis (Hepatotoxicity [1]) | HepSE_hepatomegaly (Hepatotoxicity [2]) | HepSE_liver fatty (Hepatotoxicity [3]) | HepSE_liver disease (Hepatotoxicity [4]) | HepSE_bilirubinemia (Hepatotoxicity [5]) | HepSE_cirrhosis (Hepatotoxicity [6]) | HepSE_hepatitis (Hepatotoxicity [7]) | HepSE_cholelithiasis (Hepatotoxicity [8]) | HepSE_liver function tests abnormal (Hepatotoxicity [9]) | HepSE_jaundice (Hepatotoxicity [10]) | HepSE_hepatic failure (Hepatotoxicity [11]) | HepSE_hepatic necrosis (Hepatotoxicity [12]) | HepSE_elevated liver function tests (Hepatotoxicity [13]) | HepSE_Combined Scores (Hepatotoxicity [14])

CN(C)c1ccc(O)c2c1C[C@H]1C[C@H]3[C@H](N(C)C)C(O)=C(C(N)=O)C(=O)[C@@]3(O)C(O)=C1C2=O [MINOCYCLINE]
1: HepSE_bilirubinemia (Hepatotoxicity [5]) | HepSE_hepatitis (Hepatotoxicity [7]) | HepSE_jaundice (Hepatotoxicity [10]) | HepSE_hepatic failure (Hepatotoxicity [11])
0: HepSE_cholecystitis (Hepatotoxicity [1]) | HepSE_hepatomegaly (Hepatotoxicity [2]) | HepSE_liver fatty (Hepatotoxicity [3]) | HepSE_liver disease (Hepatotoxicity [4]) | HepSE_cirrhosis (Hepatotoxicity [6]) | HepSE_cholelithiasis (Hepatotoxicity [8]) | HepSE_liver function tests abnormal (Hepatotoxicity [9]) | HepSE_hepatic necrosis (Hepatotoxicity [12]) | HepSE_elevated liver function tests (Hepatotoxicity [13])
4: HepSE_Combined Scores (Hepatotoxicity [14])

Cc1[nH]c(=O)c(C#N)cc1-c1ccncc1 [MILRINONE]
0: HepSE_cholecystitis (Hepatotoxicity [1]) | HepSE_hepatomegaly (Hepatotoxicity [2]) | HepSE_liver fatty (Hepatotoxicity [3]) | HepSE_liver disease (Hepatotoxicity [4]) | HepSE_bilirubinemia (Hepatotoxicity [5]) | HepSE_cirrhosis (Hepatotoxicity [6]) | HepSE_hepatitis (Hepatotoxicity [7]) | HepSE_cholelithiasis (Hepatotoxicity [8]) | HepSE_liver function tests abnormal (Hepatotoxicity [9]) | HepSE_jaundice (Hepatotoxicity [10]) | HepSE_hepatic failure (Hepatotoxicity [11]) | HepSE_hepatic necrosis (Hepatotoxicity [12]) | HepSE_elevated liver function tests (Hepatotoxicity [13]) | HepSE_Combined Scores (Hepatotoxicity [14])

CC#C[C@]1(O)CC[C@H]2[C@@H]3CCC4=CC(=O)CCC4=C3[C@@H](c3ccc(N(C)C)cc3)C[C@@]21C [MIFEPRISTONE]
0: HepSE_cholecystitis (Hepatotoxicity [1]) | HepSE_hepatomegaly (Hepatotoxicity [2]) | HepSE_liver fatty (Hepatotoxicity [3]) | HepSE_liver disease (Hepatotoxicity [4]) | HepSE_bilirubinemia (Hepatotoxicity [5]) | HepSE_cirrhosis (Hepatotoxicity [6]) | HepSE_hepatitis (Hepatotoxicity [7]) | HepSE_cholelithiasis (Hepatotoxicity [8]) | HepSE_liver function tests abnormal (Hepatotoxicity [9]) | HepSE_jaundice (Hepatotoxicity [10]) | HepSE_hepatic failure (Hepatotoxicity [11]) | HepSE_hepatic necrosis (Hepatotoxicity [12]) | HepSE_elevated liver function tests (Hepatotoxicity [13]) | HepSE_Combined Scores (Hepatotoxicity [14])

C[C@]12CC[C@H]3[C@@H](CCC4=CC(=O)CC[C@@H]43)[C@@H]1CC[C@@H]2O [NANDROLONE]
0: HepSE_cholecystitis (Hepatotoxicity [1]) | HepSE_hepatomegaly (Hepatotoxicity [2]) | HepSE_liver fatty (Hepatotoxicity [3]) | HepSE_liver disease (Hepatotoxicity [4]) | HepSE_bilirubinemia (Hepatotoxicity [5]) | HepSE_cirrhosis (Hepatotoxicity [6]) | HepSE_hepatitis (Hepatotoxicity [7]) | HepSE_cholelithiasis (Hepatotoxicity [8]) | HepSE_liver function tests abnormal (Hepatotoxicity [9]) | HepSE_jaundice (Hepatotoxicity [10]) | HepSE_hepatic failure (Hepatotoxicity [11]) | HepSE_hepatic necrosis (Hepatotoxicity [12]) | HepSE_elevated liver function tests (Hepatotoxicity [13]) | HepSE_Combined Scores (Hepatotoxicity [14])

C=CCN1C[C@H](C(=O)N(CCCN(C)C)C(=O)NCC)C[C@@H]2c3cccc4[nH]cc(c34)C[C@H]21 [CABERGOLINE]
0: HepSE_cholecystitis (Hepatotoxicity [1]) | HepSE_hepatomegaly (Hepatotoxicity [2]) | HepSE_liver fatty (Hepatotoxicity [3]) | HepSE_liver disease (Hepatotoxicity [4]) | HepSE_bilirubinemia (Hepatotoxicity [5]) | HepSE_cirrhosis (Hepatotoxicity [6]) | HepSE_hepatitis (Hepatotoxicity [7]) | HepSE_cholelithiasis (Hepatotoxicity [8]) | HepSE_jaundice (Hepatotoxicity [10]) | HepSE_hepatic failure (Hepatotoxicity [11]) | HepSE_hepatic necrosis (Hepatotoxicity [12]) | HepSE_elevated liver function tests (Hepatotoxicity [13])
1: HepSE_liver function tests abnormal (Hepatotoxicity [9]) | HepSE_Combined Scores (Hepatotoxicity [14])

CNC(=C[N+](=O)[O-])NCCSCc1ccc(CN(C)C)o1 [RANITIDINE]
4: HepSE_Combined Scores (Hepatotoxicity [14])
1: HepSE_liver disease (Hepatotoxicity [4]) | HepSE_hepatitis (Hepatotoxicity [7]) | HepSE_jaundice (Hepatotoxicity [10]) | HepSE_hepatic failure (Hepatotoxicity [11])
0: HepSE_cholecystitis (Hepatotoxicity [1]) | HepSE_hepatomegaly (Hepatotoxicity [2]) | HepSE_liver fatty (Hepatotoxicity [3]) | HepSE_bilirubinemia (Hepatotoxicity [5]) | HepSE_cirrhosis (Hepatotoxicity [6]) | HepSE_cholelithiasis (Hepatotoxicity [8]) | HepSE_liver function tests abnormal (Hepatotoxicity [9]) | HepSE_hepatic necrosis (Hepatotoxicity [12]) | HepSE_elevated liver function tests (Hepatotoxicity [13])

CC1(C)O[C@@H]2C[C@H]3[C@@H]4C[C@H](F)C5=CC(=O)C=C[C@]5(C)[C@H]4[C@@H](O)C[C@]3(C)[C@]2(C(=O)CO)O1 [FLUNISOLIDE]
0: HepSE_cholecystitis (Hepatotoxicity [1]) | HepSE_hepatomegaly (Hepatotoxicity [2]) | HepSE_liver fatty (Hepatotoxicity [3]) | HepSE_liver disease (Hepatotoxicity [4]) | HepSE_bilirubinemia (Hepatotoxicity [5]) | HepSE_cirrhosis (Hepatotoxicity [6]) | HepSE_hepatitis (Hepatotoxicity [7]) | HepSE_cholelithiasis (Hepatotoxicity [8]) | HepSE_liver function tests abnormal (Hepatotoxicity [9]) | HepSE_jaundice (Hepatotoxicity [10]) | HepSE_hepatic failure (Hepatotoxicity [11]) | HepSE_hepatic necrosis (Hepatotoxicity [12]) | HepSE_elevated liver function tests (Hepatotoxicity [13]) | HepSE_Combined Scores (Hepatotoxicity [14])
